According to US8933230B2, “Phosphorus-containing group-substituted quinoline, its preparation process, medical composition containing the compounds and application” (priority 2011, dated 2015):

Tests used:
Assay in all cases: KinomeScan kinase panel
Type in all cases: binding
[1] = biological target: T1, JNK3 (Homo sapiens, UniProt P53779)
T1 construct: purchased DiscoveRx Corporation (KinomeScan)
Procedure, shortened: (§1)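 Values come from one concentration only (1000 nM) within a broad 442-kinase KinomeScan screen.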

[2] = biological target: T2, CAMK2B (Homo sapiens, UniProt Q13554)
T2 construct: purchased DiscoveRx Corporation (KinomeScan)
Procedure, shortened: as §1

[3] = biological target: T3, TESK1 (Homo sapiens, UniProt Q15569)
T3 construct: purchased DiscoveRx Corporation (KinomeScan)
Procedure, shortened: as §1

[4] = biological target: T4, PDPK1 (Homo sapiens, UniProt O15530)
T4 construct: purchased DiscoveRx Corporation (KinomeScan panel)
Procedure, shortened: as §1

[5] = biological target: T5, GRK4 (Homo sapiens, UniProt P32298)
T5 construct: purchased DiscoveRx Corporation (KinomeScan)
T5 sequence (P32298 whole entry): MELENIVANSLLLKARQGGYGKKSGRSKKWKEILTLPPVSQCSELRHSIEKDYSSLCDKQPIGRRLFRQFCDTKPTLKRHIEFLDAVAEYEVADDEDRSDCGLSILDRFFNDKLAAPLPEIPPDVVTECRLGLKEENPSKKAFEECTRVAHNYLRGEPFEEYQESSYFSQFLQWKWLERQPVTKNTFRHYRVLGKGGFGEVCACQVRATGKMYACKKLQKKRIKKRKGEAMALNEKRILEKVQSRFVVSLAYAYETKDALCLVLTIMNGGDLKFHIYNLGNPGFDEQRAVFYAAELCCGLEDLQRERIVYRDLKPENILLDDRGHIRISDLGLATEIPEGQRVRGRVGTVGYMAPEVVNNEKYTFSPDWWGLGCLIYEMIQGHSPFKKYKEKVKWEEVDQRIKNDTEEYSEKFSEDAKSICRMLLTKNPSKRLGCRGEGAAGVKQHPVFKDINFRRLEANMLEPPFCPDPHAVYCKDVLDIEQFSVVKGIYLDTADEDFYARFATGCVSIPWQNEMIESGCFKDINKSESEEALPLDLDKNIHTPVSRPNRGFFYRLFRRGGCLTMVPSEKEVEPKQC
Procedure, shortened: as §1

[6] = biological target: T6, MARK3 (Homo sapiens, UniProt P27448)
T6 construct: purchased DiscoveRx Corporation (KinomeScan)
Procedure, shortened: as §1

[7] = biological target: T7, PAK6 (Homo sapiens, UniProt Q9NQU5)
T7 construct: purchased DiscoveRx Corporation (KinomeScan panel)
Procedure, shortened: as §1

[8] = biological target: T8, PKMYT1 (Homo sapiens, UniProt Q99640)
T8 construct: purchased DiscoveRx Corporation (KinomeScan)
Procedure, shortened: as §1

[9] = biological target: T9, ABL1(Y253F)-phosphorylated (Homo sapiens, UniProt P00519, Y253F)
T9 construct: purchased DiscoveRx Corporation (KinomeScan)
Procedure, shortened: as §1

[10] = biological target: T10, IRAK1 (Homo sapiens, UniProt P51617)
T10 construct: purchased DiscoveRx Corporation (KinomeScan)
Procedure, shortened: as §1

[11] = biological target: T11, HIPK4 (Homo sapiens, UniProt Q8NE63)
T11 construct: purchased DiscoveRx Corporation (KinomeScan)
Procedure, shortened: as §1

[12] = biological target: T12, EGFR(T790M) (Homo sapiens, UniProt P00533, T790M)
T12 construct: purchased DiscoveRx Corporation (KinomeScan)
Procedure, shortened: as §1

[13] = biological target: T13, HPK1 (Homo sapiens, UniProt Q92918)
T13 construct: purchased DiscoveRx Corporation (KinomeScan)
Procedure, shortened: as §1

[14] = biological target: T14, SIK2 (Homo sapiens, UniProt Q9H0K1)
T14 construct: purchased DiscoveRx Corporation (KinomeScan)
Procedure, shortened: as §1

[15] = biological target: T15, TAOK1 (Homo sapiens, UniProt Q7L7X3)
T15 construct: purchased DiscoveRx Corporation (KinomeScan)
Procedure, shortened: as §1

[16] = biological target: T16, JNK2 (Homo sapiens, UniProt P45984)
T16 construct: purchased DiscoveRx Corporation (KinomeScan)
T16 sequence (P45984 whole entry): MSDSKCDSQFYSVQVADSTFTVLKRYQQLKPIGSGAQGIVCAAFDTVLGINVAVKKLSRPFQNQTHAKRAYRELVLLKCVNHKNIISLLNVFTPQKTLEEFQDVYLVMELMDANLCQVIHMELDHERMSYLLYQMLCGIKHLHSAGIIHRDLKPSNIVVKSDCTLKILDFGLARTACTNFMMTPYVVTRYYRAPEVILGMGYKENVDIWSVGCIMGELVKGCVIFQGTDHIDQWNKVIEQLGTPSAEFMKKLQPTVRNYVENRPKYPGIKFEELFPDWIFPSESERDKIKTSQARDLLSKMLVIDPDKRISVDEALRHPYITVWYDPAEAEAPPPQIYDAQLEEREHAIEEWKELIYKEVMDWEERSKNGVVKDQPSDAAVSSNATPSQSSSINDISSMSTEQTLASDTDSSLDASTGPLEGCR
Procedure, shortened: as §1

[17] = biological target: T17, QSK (Homo sapiens, UniProt Q9Y2K2)
T17 construct: purchased DiscoveRx Corporation
Procedure, shortened: as §1

[18] = biological target: T18, PIK3CA(C420R) (Homo sapiens, UniProt P42336, C420R)
T18 construct: purchased DiscoveRx Corporation (KinomeScan)
Procedure, shortened: as §1

[19] = biological target: T19, PIP5K1A (Homo sapiens, UniProt Q99755)
T19 construct: purchased DiscoveRx Corporation (KinomeScan)
Procedure, shortened: as §1

[20] = biological target: T20, EPHA3 (Homo sapiens, UniProt P29320)
T20 construct: purchased DiscoveRx Corporation (KinomeScan)
T20 sequence (P29320 21-983): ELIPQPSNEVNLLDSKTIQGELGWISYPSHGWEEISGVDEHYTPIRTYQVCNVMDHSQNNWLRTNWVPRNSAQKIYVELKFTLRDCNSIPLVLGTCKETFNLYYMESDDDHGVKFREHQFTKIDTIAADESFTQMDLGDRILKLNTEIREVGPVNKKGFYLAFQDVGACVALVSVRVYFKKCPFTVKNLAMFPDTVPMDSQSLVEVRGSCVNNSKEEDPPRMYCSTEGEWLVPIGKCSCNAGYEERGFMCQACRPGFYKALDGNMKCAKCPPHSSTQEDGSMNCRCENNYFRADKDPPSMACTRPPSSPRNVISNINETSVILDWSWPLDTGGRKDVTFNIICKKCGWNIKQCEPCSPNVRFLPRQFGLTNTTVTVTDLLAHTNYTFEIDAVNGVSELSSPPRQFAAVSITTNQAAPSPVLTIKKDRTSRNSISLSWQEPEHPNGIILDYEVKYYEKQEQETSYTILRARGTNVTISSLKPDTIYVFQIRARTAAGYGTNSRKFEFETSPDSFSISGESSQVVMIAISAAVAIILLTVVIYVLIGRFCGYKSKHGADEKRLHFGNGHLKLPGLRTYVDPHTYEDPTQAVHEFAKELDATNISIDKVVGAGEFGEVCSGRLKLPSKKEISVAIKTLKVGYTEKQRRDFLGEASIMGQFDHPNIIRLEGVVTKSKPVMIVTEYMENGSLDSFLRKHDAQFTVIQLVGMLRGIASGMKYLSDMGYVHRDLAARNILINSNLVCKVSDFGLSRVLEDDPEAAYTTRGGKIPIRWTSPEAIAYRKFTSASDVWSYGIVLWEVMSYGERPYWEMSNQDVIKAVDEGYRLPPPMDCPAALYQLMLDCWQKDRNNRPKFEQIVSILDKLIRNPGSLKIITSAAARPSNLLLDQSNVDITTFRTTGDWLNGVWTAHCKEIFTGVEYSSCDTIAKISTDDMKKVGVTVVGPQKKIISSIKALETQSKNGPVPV
Procedure, shortened: as §1

[21] = biological target: T21, EPHB3 (Homo sapiens, UniProt P54753)
T21 construct: purchased DiscoveRx Corporation (KinomeScan)
Procedure, shortened: as §1

[22] = biological target: T22, CIT (Homo sapiens, UniProt O14578)
T22 construct: purchased DiscoveRx Corporation (KinomeScan)
Procedure, shortened: as §1

[23] = biological target: T23, FES (Homo sapiens, UniProt P07332)
T23 construct: purchased DiscoveRx Corporation (KinomeScan)
Procedure, shortened: as §1

[24] = biological target: T24, ABL1(E255K)-phosphorylated (Homo sapiens, UniProt P00519, E255K)
T24 construct: purchased DiscoveRx Corporation (KinomeScan)
Procedure, shortened: as §1

[25] = biological target: T25, RSK4(Kin.Dom.1-N-terminal) (Homo sapiens, UniProt Q9UK32)
T25 construct: Kin.Dom.1; purchased DiscoveRx Corporation (KinomeScan)
T25 sequence (Q9UK32 73-330 limits assumed): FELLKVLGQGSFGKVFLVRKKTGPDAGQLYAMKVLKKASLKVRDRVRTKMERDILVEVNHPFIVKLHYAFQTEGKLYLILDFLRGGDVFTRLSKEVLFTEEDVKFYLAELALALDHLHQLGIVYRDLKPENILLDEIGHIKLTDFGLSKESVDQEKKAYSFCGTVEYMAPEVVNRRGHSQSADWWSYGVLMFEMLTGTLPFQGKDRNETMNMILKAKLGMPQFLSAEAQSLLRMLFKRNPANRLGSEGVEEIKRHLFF
Procedure, shortened: as §1

[26] = biological target: T26, NLK (Homo sapiens, UniProt Q9UBE8)
T26 construct: purchased DiscoveRx Corporation (KinomeScan panel)
T26 sequence (Q9UBE8 whole entry): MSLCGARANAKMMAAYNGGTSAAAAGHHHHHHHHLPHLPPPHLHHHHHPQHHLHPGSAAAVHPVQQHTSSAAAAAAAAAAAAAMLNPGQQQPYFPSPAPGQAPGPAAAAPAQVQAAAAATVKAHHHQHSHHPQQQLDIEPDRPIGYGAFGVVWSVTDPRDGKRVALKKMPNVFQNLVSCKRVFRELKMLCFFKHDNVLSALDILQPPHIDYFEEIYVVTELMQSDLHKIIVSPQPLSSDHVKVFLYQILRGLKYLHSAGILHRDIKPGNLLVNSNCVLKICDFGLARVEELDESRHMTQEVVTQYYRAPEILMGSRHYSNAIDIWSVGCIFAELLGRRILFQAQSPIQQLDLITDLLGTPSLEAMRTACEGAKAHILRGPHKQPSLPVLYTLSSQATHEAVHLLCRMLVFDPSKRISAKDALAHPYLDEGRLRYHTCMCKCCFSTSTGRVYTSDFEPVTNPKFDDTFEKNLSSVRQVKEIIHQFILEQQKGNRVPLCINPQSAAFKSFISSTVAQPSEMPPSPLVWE
Procedure, shortened: as §1

[27] = biological target: T27, LRRK2 (Homo sapiens, UniProt Q5S007)
T27 construct: purchased DiscoveRx Corporation (KinomeScan)
Procedure, shortened: as §1

[28] = biological target: T28, KIT(V559D) (Homo sapiens, UniProt P10721, V559D)
T28 construct: purchased DiscoveRx Corporation (KinomeScan)
T28 sequence (P10721 26-976 V559D): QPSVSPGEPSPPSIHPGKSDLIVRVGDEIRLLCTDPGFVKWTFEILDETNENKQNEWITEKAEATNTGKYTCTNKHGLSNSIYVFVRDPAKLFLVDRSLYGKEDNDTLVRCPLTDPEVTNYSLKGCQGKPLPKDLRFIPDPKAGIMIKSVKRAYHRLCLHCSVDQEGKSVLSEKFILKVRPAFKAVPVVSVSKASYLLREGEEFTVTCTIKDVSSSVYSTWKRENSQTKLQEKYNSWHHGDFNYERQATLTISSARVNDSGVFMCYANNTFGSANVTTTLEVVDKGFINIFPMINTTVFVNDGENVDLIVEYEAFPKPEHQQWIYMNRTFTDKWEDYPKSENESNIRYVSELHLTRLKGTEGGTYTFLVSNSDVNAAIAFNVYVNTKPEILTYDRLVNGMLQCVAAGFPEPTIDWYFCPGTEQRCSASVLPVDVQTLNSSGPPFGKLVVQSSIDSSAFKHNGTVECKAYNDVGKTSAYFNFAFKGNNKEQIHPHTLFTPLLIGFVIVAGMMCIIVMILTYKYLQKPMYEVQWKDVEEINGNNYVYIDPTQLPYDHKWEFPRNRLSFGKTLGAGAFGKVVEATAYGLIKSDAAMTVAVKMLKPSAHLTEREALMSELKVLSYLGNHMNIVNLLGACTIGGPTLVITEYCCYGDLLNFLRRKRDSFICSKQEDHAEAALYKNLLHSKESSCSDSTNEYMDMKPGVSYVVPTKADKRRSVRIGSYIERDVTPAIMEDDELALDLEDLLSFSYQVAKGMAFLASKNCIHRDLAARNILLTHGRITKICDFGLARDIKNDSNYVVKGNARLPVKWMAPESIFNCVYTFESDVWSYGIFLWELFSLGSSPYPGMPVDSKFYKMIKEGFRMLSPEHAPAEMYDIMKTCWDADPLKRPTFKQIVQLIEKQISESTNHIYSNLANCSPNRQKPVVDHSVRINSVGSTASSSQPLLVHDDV
Procedure, shortened: as §1

[29] = biological target: T29, CSNK1A1 (Homo sapiens, UniProt P48729)
T29 construct: purchased DiscoveRx Corporation (KinomeScan)
T29 sequence (P48729 whole entry): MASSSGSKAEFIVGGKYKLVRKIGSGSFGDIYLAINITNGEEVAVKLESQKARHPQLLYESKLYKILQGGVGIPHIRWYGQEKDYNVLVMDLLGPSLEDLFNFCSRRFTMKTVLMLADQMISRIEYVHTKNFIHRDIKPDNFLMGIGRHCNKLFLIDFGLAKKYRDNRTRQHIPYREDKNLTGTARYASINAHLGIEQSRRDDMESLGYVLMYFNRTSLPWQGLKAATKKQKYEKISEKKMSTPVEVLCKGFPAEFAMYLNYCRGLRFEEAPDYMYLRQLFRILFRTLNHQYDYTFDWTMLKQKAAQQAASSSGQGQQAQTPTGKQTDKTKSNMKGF
Procedure, shortened: as §1

[30] = biological target: T30, ERN1 (Homo sapiens, UniProt O75460)
T30 construct: purchased DiscoveRx Corporation (KinomeScan)
Procedure, shortened: as §1

[31] = biological target: T31, ANKK1 (Homo sapiens, UniProt Q8NFD2)
T31 construct: purchased DiscoveRx Corporation (KinomeScan)
Procedure, shortened: as §1

[32] = biological target: T32, AURKA (Homo sapiens, UniProt O14965)
T32 construct: purchased DiscoveRx Corporation (KinomeScan)
Procedure, shortened: as §1

[33] = biological target: T33, MAPKAPK5 (Homo sapiens, UniProt Q8IW41)
T33 construct: purchased DiscoveRx Corporation (KinomeScan)
Procedure, shortened: as §1

[34] = biological target: T34, PRKG2 (Homo sapiens, UniProt Q13237)
T34 construct: purchased DiscoveRx Corporation (KinomeScan)
Procedure, shortened: as §1

[35] = biological target: T35, CAMK2G (Homo sapiens, UniProt Q13555)
T35 construct: purchased DiscoveRx Corporation (KinomeScan)
Procedure, shortened: as §1

[36] = biological target: T36, LCK (Homo sapiens, UniProt P06239)
T36 construct: purchased DiscoveRx Corporation (KinomeScan)
T36 sequence (P06239 whole entry): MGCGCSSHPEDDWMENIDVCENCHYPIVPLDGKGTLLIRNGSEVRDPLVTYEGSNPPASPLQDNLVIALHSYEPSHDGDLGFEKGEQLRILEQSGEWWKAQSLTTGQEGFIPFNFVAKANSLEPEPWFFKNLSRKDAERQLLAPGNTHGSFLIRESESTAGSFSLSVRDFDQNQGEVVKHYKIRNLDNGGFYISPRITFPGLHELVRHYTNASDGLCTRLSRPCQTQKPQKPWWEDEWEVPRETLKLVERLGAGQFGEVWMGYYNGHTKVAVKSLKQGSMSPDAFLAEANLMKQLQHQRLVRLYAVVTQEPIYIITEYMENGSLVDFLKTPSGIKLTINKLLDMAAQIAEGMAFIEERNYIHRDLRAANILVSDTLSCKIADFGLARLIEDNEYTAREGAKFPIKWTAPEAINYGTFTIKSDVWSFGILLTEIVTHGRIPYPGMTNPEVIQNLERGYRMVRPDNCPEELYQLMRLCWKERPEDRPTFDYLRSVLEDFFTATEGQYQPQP
Procedure, shortened: as §1

T1 sequence (P53779 whole entry): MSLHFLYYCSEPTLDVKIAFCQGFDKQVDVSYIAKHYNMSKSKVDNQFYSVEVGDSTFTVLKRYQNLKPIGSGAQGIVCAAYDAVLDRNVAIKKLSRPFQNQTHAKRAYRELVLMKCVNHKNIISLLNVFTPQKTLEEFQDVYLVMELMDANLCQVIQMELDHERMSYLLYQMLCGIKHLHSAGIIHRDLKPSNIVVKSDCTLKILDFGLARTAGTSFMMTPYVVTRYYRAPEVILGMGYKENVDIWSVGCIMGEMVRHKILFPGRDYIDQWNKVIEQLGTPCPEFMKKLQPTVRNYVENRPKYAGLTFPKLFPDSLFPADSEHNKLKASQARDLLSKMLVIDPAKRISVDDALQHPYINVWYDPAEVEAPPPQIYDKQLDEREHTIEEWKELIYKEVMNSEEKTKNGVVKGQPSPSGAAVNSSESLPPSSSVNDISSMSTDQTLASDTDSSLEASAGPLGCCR

SMILES: CCOP(=O)(CN1CCC(COc2cc3nccc(Oc4ccc(NC(=O)C5(C(=O)Nc6ccc(F)cc6)CC5)cc4F)c3cc2OC)CC1)OCC [Example 10, N1-[4-[[7-[[1-(diethoxyphosphorylmethyl)-4-piperidinyl]methoxyl]-6-methoxyl-4-quinolyl]oxyl]-3-fluorophenyl]-N1′-(4-fluorophenyl)cyclopropane-1,1-dicarboxamide]
- % Ctrl@1000 nM [1]: 95 % Ctrl
- % Ctrl@1000 nM [2]: 100 % Ctrl
- % Ctrl@1000 nM [3]: 39 % Ctrl
- % Ctrl@1000 nM [4]: 100 % Ctrl
- % Ctrl@1000 nM [5]: 78 % Ctrl
- % Ctrl@1000 nM [6]: 100 % Ctrl
- % Ctrl@1000 nM [7]: 87 % Ctrl
- % Ctrl@1000 nM [8]: 100 % Ctrl
- % Ctrl@1000 nM [9]: 32 % Ctrl
- % Ctrl@1000 nM [10]: 100 % Ctrl
- % Ctrl@1000 nM [11]: 0.15 % Ctrl
- % Ctrl@1000 nM [12]: 100 % Ctrl
- % Ctrl@1000 nM [13]: 40 % Ctrl
- % Ctrl@1000 nM [14]: 100 % Ctrl
- % Ctrl@1000 nM [15]: 100 % Ctrl
- % Ctrl@1000 nM [16]: 93 % Ctrl
- % Ctrl@1000 nM [17]: 100 % Ctrl
- % Ctrl@1000 nM [18]: 100 % Ctrl
- % Ctrl@1000 nM [19]: 100 % Ctrl
- % Ctrl@1000 nM [20]: 6 % Ctrl
- % Ctrl@1000 nM [21]: 36 % Ctrl
- % Ctrl@1000 nM [22]: 100 % Ctrl
- % Ctrl@1000 nM [23]: 44 % Ctrl
- % Ctrl@1000 nM [24]: 63 % Ctrl
- % Ctrl@1000 nM [25]: 77 % Ctrl
- % Ctrl@1000 nM [26]: 100 % Ctrl
- % Ctrl@1000 nM [27]: 100 % Ctrl
- % Ctrl@1000 nM [28]: 0.15 % Ctrl
- % Ctrl@1000 nM [29]: 100 % Ctrl
- % Ctrl@1000 nM [30]: 81 % Ctrl
- % Ctrl@1000 nM [31]: 100 % Ctrl
- % Ctrl@1000 nM [32]: 100 % Ctrl
- % Ctrl@1000 nM [33]: 100 % Ctrl
- % Ctrl@1000 nM [34]: 100 % Ctrl
- % Ctrl@1000 nM [35]: 100 % Ctrl
- % Ctrl@1000 nM [36]: 2.2 % Ctrl
